Reference: patent publication US20090029997A1, “Thiazole Derivatives and Use Thereof” (LABORATOIRES SERONO SA, priority 2006, published 2009)

Legend:
[1] = biological target: Human recombinant GST-PI3Kγ (Homo sapiens, UniProt P48736); assay: High throughput PI3K lipid kinase assay (SPA, neomycin-coated beads); format: biochemical; details: 180 min at room temperature
Source text: a) High Throughput PI3K Lipid Kinase Assay (Binding Assay):
The efficacy of compounds of the invention in inhibiting the PI3K induced-lipid phosphorylation may be tested in the following binding assay.
The assay combines the scintillation proximity assay technology (SPA, Amersham) with the capacity of neomycin (a polycationic antibiotic) to bind phospholipids with high affinity and specificity. The Scintillation Proximity Assay is based on the properties of weakly emitting isotopes (such as ^3H, ^125I, ^33P). Coating SPA beads with neomycin allows the detection of phosphorylated lipid substrates after incubation with recombinant PI3K and radioactive ATP in the same well, by capturing the radioactive phospholipids to the SPA beads through their specific binding to neomycin.
To a 384 wells MTP containing 5 μl of the test compound of Formula (I) (solubilized in 6% DMSO; to yield a concentration of 100, 30, 10, 3, 1, 0.3, 0.1, 0.03, 0.01, 01 μM of the test compound), the following assay components are added. 1) 5 μl (58 ng) of Human recombinant GST-PI3Kγ (in Hepes 40 mM, pH 7.4, DTT 1 mM and ethyleneglycol 5%) 2) 10 μl of lipid micelles and 3) 10 μl of Kinase buffer ([^33P]γ-ATP 45 μM/60 nCi, MgCl2 30 mM, DTT 1 mM, β-Glycerophosphate 1 mM, Na3VO4 100 μM, Na Cholate 0.3%, in Hepes 40 mM, pH 7.4). After incubation at room temperature for 180 minutes, with gentle agitation, the reaction is stopped by addition of 60 μl of a solution containing 100 μg of neomycin-coated PVT SPA beads in PBS containing ATP 10 mM and EDTA 5 mM. The assay is further incubated at room temperature for 60 minutes with gentle agitation to allow binding of phospholipids to neomycin-SPA beads. After precipitation of the neomycin-coated PVT SPA beads for 5 minutes at 1500×g, radioactive PtdIns(3)P is quantified by scintillation counting in a Wallac MicroBeta™ plate counter.
The values indicated in Table I below refer to the IC50 (μM) with respect to PI3Kγ, i.e. the amount necessary to achieve 50% inhibition of said target. Said values show a considerable inhibitory potency of thiazole compounds with regard to PI3Kγ.

[2] = test system: Akt/PKB phosphorylation in Raw 264-7 macrophages; assay: Cell based ELISA of Akt/PKB phosphorylation after Complement 5a stimulation; details: Mus musculus, RAW264.7, 50 nM Complement 5a for 5 minutes, inhibitor pretreatment 20 minutes, read-out: Cell Assay (P-Akt, Elisa) IC50
Procedure: b) Cell Based ELISA to Monitor PI3K Inhibition:
The efficacy of compounds of the invention in inhibiting the PI3K induced Akt/PKB phosphorylation may be tested in the following cell based assay.
Measurement of Akt/PKB phosphorylation in macrophages after stimulation with Complement 5a: Raw 264: Raw 264-7 macrophages (cultured in DMEM-F12 medium containing 10% Fetal Calf serum and antibiotics) are plated at 20'000 cells/well in a 96 MTP 24 h before cell stimulation. Prior to the stimulation with 50 nM of Complement 5a during 5 minutes, Cells are serum starved for 2 h, and pretreated with inhibitors for 20 minutes. After stimulation cells are fixed in 4% formaldehyde for 20 minutes and washed 3 times in PBS containing 1% Triton X-100 (PBS/Triton). […] Next, phosphorylated Akt/PKB is detected by an overnight incubation at 4° C. with primary antibody (anti phospho Serine 473 Akt IHC, Cell Signaling) diluted 800-fold in PBS/Triton, containing 5% bovine serum albumin (BSA). After 3 washes in PBS/Triton, cells are incubated for 60 minutes with a peroxidase conjugated goat-anti-rabbit secondary antibody (1/400 dilution in PBS/Triton, containing 5% BSA), washed 3 times in PBS/Triton, and 2 times in PBS and further incubated in 100 μl of luminescent substrate reagent solution (Pierce) for 2 minutes, followed by the reading (1 s/well). […]

Class I PI3-kinases = details: Fruman et al., 1998; read-out: IC50 against each of the various Class I PI3-kinases; cited from earlier work

Chain of Human recombinant GST-PI3Kγ (P48736 whole entry): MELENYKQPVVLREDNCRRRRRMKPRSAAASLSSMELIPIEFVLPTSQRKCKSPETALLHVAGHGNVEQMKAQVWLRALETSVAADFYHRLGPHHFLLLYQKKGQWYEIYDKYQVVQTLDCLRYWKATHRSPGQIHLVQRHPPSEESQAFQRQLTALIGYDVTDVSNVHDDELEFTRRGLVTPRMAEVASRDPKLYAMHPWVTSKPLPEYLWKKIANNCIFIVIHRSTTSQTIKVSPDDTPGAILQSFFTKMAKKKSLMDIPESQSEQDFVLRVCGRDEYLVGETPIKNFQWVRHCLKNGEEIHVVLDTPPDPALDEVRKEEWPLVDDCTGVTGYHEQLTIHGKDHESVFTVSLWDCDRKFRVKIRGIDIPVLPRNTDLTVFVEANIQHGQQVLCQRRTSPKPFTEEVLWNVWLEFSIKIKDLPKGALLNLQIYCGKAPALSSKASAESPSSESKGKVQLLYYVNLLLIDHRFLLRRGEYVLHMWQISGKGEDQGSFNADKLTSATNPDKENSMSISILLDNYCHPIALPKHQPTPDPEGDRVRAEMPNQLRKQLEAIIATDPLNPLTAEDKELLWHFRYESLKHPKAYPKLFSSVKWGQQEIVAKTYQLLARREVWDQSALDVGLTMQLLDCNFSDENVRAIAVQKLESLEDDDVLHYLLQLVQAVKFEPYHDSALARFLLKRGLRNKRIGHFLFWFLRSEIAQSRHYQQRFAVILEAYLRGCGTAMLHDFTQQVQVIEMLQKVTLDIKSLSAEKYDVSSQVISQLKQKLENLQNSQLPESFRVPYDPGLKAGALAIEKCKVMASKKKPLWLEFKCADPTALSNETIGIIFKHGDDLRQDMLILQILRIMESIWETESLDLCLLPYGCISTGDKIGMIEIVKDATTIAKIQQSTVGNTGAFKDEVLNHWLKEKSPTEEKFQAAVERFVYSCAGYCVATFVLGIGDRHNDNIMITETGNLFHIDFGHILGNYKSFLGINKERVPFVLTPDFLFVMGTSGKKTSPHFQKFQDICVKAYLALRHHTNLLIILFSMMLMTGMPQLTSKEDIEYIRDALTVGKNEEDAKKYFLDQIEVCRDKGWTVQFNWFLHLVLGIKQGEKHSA

| IC50 [1] [nM] | IC50 [2] [nM] | Compound | IC50 (Class I PI3-kinases) [nM] |
| --- | --- | --- | --- |
| 708 |  | CC(=O)Nc1nc(C)c(-c2cnn(S(=O)(=O)c3ccc(C(=O)O)cc3)c2)s1 [Example 14, 4-({4-[2-(acetylamino)-4-methyl-1,3-thiazol-5-yl]-1H-pyrazol-1-yl}sulfonyl)benzoic acid] |  |
| 282 |  | COc1ccc(S(=O)(=O)n2cc(-c3sc(NC(C)=O)nc3C)cn2)cn1 [Example 7, N-(5-{1-[(6-methoxypyridin-3-yl)sulfonyl]-1H-pyrazol-4-yl}-4-methyl-1,3-thiazol-2-yl)acetamide] |  |
| 1230 |  | CC(=O)Nc1nc(C)c(-c2cnn(C(=O)NCCN(C)C)c2)s1 [Example 5, 4-[2-(acetylamino)-4-methyl-1,3-thiazol-5-yl]-N-[2-(dimethylamino)ethyl]-1H-pyrazole-1-carboxamide] |  |
| 1340 |  | CC(=O)Nc1nc(C)c(-c2cnn(C)c2)s1 [Example 1, N-[4-methyl-5-(1-methyl-1H-pyrazol-4-yl)-1,3-thiazol-2-yl]acetamide] |  |
| 111 | 850 | CC(=O)Nc1nc(C)c(-c2cnn(S(=O)(=O)c3cn(C)cn3)c2)s1 [Example 8, N-(4-methyl-5-{1-[(1-methyl-1H-imidazol-4-yl)sulfonyl]-1H-pyrazol-4-yl}-1,3-thiazol-2-yl)acetamide] |  |
|  |  | wortmannin | 1 to 10 |
| 413 |  | CC(=O)Nc1nc(C)c(-c2cn[nH]c2)s1 [Example 3, N-[4-methyl-5-(1H-pyrazol-4-yl)-1,3-thiazol-2-yl]acetamide] |  |
